Entries after “also recorded” stand apart in the source; their conditions may differ. Where two headings read alike, the source gives them in different places.
Experiments:
OA/TAMac receptor [1] = target: T1, OA/TAMac receptor (Macrobrachium rosenbergii, UniProt D9U2B9); assay: Antagonist block of ID evoked by 50 µM octopamine in OA/TAMac-injected oocytes; assay type: cell-based
Procedure: (§1) Recordings were performed 1–3 days post-injection at room temperature (20–22°C). Currents were recorded under two-electrode voltage clamp using an Axoclamp 900a amplifier (Molecular Devices LLC, CA USA). A digidata 1440a analog to digital converter was used in conjunction with pCLAMP 10 software (Molecular Devices) for data acquisition and to generate voltage commands. For each step protocol or chemical application data were typically sampled at 5 KHz and filtered digitally at 1 KHz. For the duration of each experiment the current was also continuously sampled at 1 kHz using a separate minidigi 1A digitizer (Molecular Devices). Glass microelectrodes were pulled from filamented 1.2 mm thin wall borosilicate glass (World Precision Instruments, Sarasota, FL) using a Sutter Instruments P-97 puller. They were filled with 3 M KCl and had resistances of 0.8–2.0 MΩ. A silver chloride pellet immersed in 3 M KCl and connected to the bath via a 3% agar bridge made with 3 M KCl was used as the reference electrode.
(§2) In experiments where more than three drugs or concentrations were tested a precisely controlled 30 s perfusion-switch was used. Up to eight channels were connected to the bath via an 8-way manifold. There was an approximately 6–7 s delay for solutions to traverse the dead volume between the manifold and the bath.

OA/TAMac receptor [2] = target: T1, OA/TAMac receptor; assay: Agonist-evoked direct-current (ID) in Xenopus oocytes injected with OA/TAMac cRNA, two-electrode voltage clamp; assay type: cell-based; details: for Amplitude of agonist evoked ID relative to octopamine-evoked current: all agonists at 50 µM, within single oocytes
Excerpt: We used Xenopus oocytes to express the prawn OA/TAMac receptor by injection of synthetic cRNA. The injection of foreign RNA into Xenopus oocytes typically induces the expression of multiple native chloride and potassium channels. Ligand evoked currents resulting from modulation of these channels have been used extensively in the characterization of heterologously expressed GPCRs. Oocytes are typically voltage clamped at a constant membrane potential around −60 mV and deviations in holding potential are measured. We refer to currents measured in this way as direct-currents (ID) (after) in order to distinguish them from the voltage-evoked transient current (ICl-T) described later.
Both flow rate and pulse duration were precisely controlled and comparisons were made relative to currents within single oocytes.
To characterize the dose dependence of ID, series of single transmitters were applied to different individual oocytes injected with OA/TAMac. Oocytes were voltage clamped at −60 mV and tyramine, (+/−)-octopamine, or dopamine were applied using 30 second perfusion-switched applications (see methods for more details).
as §1
Oocytes were continuously perfused at 1.5 mL/min either with ND 96 or test compounds dissolved in ND 96. Two types of application were used over the course of this study, a perfusion-switch or a focal application. In all cases solutions were delivered through a gravity fed system and switched using a computer controlled bank of pinch valves. Flow rate was regulated with a manual screw-type pinch valve.
For focal application a triple barrel pipette with three parallel independently switched channels was positioned about 1 mm from the surface of the oocyte, up-stream of a cross flow, at an approximate angle of 45 degrees (schematic shown in Fig. S8). Drugs were focally applied during continuous perfusion with ND 96.
as §2

[3] = Solubility limit in ND 96 when preparing test solutions; assay type: physicochemical; details: ND 96, from methanol stock
Procedure: Compounds were obtained from Sigma and dissolved in ND96 or calcium free ND 96 (96 mM NaCl, 2 mM KCl, 5 mM MgCl2, 0.1 mM EGTA, and 5 mM HEPES, pH 7.6), unless stated otherwise. […] SQ-22536 was prepared as a 0.1 M stock in water. Yohimbine was dissolved in acidic ND 96 to 1 mM, before being serially diluted at pH 7.6. Forskolin was prepared as a 0.05 M stock in DMSO. Thapsigargin was prepared as a 0.01 M stock in DMSO. (−)-Quinpirol was made as a 0.01 M stock in ND96 and stored in aliquots at −20°C. […] For all antagonists serial dilutions were made in ND 96 containing 50 µM octopamine and applied as a mixture.

[4] = tested on: CFTR conductance (intracellular cAMP); assay: cAMP detection by whole oocyte (CFTR) conductance in oocytes co-expressing CFTR and OA/TAMac; assay type: cell-based, Xenopus laevis; details: FSK at 50 µM
Excerpt: It is also unlikely that the effects of tyramine at high concentration result from an increase in cAMP. It is common that octopaminergic GPCRs can couple through the canonical Gαs/cAMP pathway so we used co-expression of the Cystic Fibrosis Trans-membrane Conductance Regulator (CFTR) as a means of testing for increases in cAMP (see methods for more detail) [60]–[63].
As a means of detecting rises in intracellular cAMP levels we tested oocytes co-expressing the CFTR channel and OA/TAMac. Heterologously expressed CFTR can be used as an extremely sensitive assay for intracellular cAMP in Xenopus oocytes. CFTR mediates a chloride-selective leak conductance that is activated by increases in intracellular cAMP [63]. Activity of CFTR can thus be used to indicate whether changes in cAMP correspond with ligand application [60]–[62]. Whole oocyte conductance was monitored using a step protocol and calculated from I/V plots. The command voltage was stepped from the holding potential to various levels (−10 mV to −55 mV in −5 mV increments) for 150 ms. The steady state current during each step was plotted against the command voltage and fit to a line using Clampfit 10 software (Fig. S7A). The slope of the line was taken as the conductance. To minimize the magnitude of the holding current between drug applications, oocytes expressing CFTR were typically held at −20 mV which is close to the typical chloride reversal potential. This was confirmed by the fact that the direct-current evoked by forskolin could appear inward or outward at −20 mV. Oocytes expressing either OA/TAMac alone or OA/TAMac and CFTR typically had resting membrane potentials between −20 mV and −30 mV (mean of −26±5 mV calculated from oocytes in Fig. S7) due to increased expression of endogenous chloride currents.
(A) The measurement of whole oocyte conductance was done by plotting steady state current against the command voltage recorded during a step protocol. It is defined as the slope (I/V) of the linear least squares regression line. In the example shown tyramine (TA) causes no apparent change in whole oocyte conductance. Octopamine (OA) causes a small change compared to the adenylate cyclase activator forskolin (FSK). […] These cumulative data are from 20 OA/TAMac and CFTR-injected oocytes and 6 OA/TAMac -only injected oocytes. Conductance was measured as shown in A. Not all compounds were tested in all oocytes. Each response is treated as an independent sample. Concentrations of OA and TA were at 100 µM or 1000 µM, FSK was at 50 µM. Some points obtained at 3 minutes were grouped with the 4 minute responses. (C) The change in conductance (Δg) occurring within oocytes as determined by the difference between baseline and the indicated time points post-application of compound. […]

Uninjected oocytes = assay: Direct-current response of uninjected oocytes (control); assay type: cell-based, Xenopus laevis; details: n = 5
Procedure: We first tested receptor-injected oocytes for the occurrence of a response to biogenic amines. Applications of tyramine, octopamine, or dopamine produced an inward ID, typically ranging between 50 nA and 500 nA, under a constant holding potential of −60 mV. […] The amplitude of tyramine evoked ID at concentrations below 10 µM was greater than octopamine or dopamine within the same oocyte (Figs. 2A and S2). […] Instead it would rise and then begin to decline prior to the removal of agonist (dotted line). However, at high concentrations, above 100 µM, ID appeared to approach a stable plateau (Fig. 2B).
as §1
Supplementary file pone.0111314.s001.tif: Figure S1 Direct-current (ID) responses are specifically evoked by agonists in oocytes injected with OA/TAMac only. […] The trace is representative of an experimental set of 5 oocytes. Additional uninjected oocytes were tested with various experimental sets throughout the course of this study. (B) A typical preliminary test of agonist sensitivity. Injection of OA/TAMac cRNA alone is sufficient to confer sensitivity to OA. […] Applications are approximately 30 seconds in the upper trace. (C) The response of clonidine (CN), synephrine (SN), and OA within a single OA/TAMac injected oocyte. […] All drugs are applied for 30 seconds each as indicated by black rectangles. Agonist evoked currents are measured within oocytes relative to the octopamine response at 50 µM. The comparison is made to OA because the amplitude of the tyramine response becomes small at concentrations above 10 µM. This is due to a mechanistically undefined process not seen with any other agonist we tested. Note that TA is the first compound applied to a naïve oocyte in this example. […] (TIF) Click here for additional data file.

[5] = antagonist applied as mixture with 50 µM octopamine, 30 second perfusion-switch, −60 mV, estimated graphically, read-out: IC50 for block of octopamine-evoked ID

T1 sequence (D9U2B9 entry or part of it): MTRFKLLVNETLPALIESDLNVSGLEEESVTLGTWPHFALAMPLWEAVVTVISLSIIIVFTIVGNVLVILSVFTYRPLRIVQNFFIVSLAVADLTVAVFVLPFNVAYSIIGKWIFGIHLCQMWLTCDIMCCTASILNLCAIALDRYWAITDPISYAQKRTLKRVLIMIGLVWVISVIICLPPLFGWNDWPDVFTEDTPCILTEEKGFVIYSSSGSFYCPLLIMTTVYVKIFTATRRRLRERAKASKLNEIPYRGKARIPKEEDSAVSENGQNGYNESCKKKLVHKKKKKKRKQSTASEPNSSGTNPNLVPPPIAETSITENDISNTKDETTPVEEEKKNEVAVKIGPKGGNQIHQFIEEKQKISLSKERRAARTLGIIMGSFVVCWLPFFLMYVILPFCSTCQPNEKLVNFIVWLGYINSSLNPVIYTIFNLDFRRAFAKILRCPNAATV

With `NC1=NCC2c3ccccc3Cc3ccccc3N12` (stereo not drawn) [epinastine] the IC50 (OA/TAMac receptor [1]; [5]) was about 3.7 µM.
Work on `COC(=O)[C@@H]1[C@H]2C[C@H]3c4[nH]c5ccccc5c4CCN3C[C@@H]2CC[C@@H]1O` [yohimbine] yielded an IC50 (OA/TAMac receptor [1]) of about 0.48 µM.
In the case of `CNCC(O)c1ccc(O)cc1` (racemic) [(+/−)-synephrine], the “Amplitude of agonist evoked ID relative to octopamine-evoked current” value (OA/TAMac receptor [2]; 30 second perfusion-switch) is reported as “smaller currents than octopamine or β-PEA”.
In the case of `O=C(CCCN1CCC(O)(c2ccc(Cl)cc2)CC1)c1ccc(F)cc1` [haloperidol], the Limit of solubility [3] is reported as “could not be tested at 100 µM because of its limit of solubility”.
For `C=C[C@@]1(C)CC(=O)[C@]2(O)[C@@]3(C)[C@@H](O)CCC(C)(C)[C@@H]3[C@H](O)[C@H](OC(C)=O)[C@@]2(C)O1` [FSK, forskolin], the “Evoked whole oocyte conductance” value [4] was “significantly larger conductance than baseline or TA”.
With `Nc1ncnc2c1ncn2C1CCCO1` (stereo not drawn) [SQ-22536] the “Effect of adenylate cyclase inhibitor on amine evoked ID” value (OA/TAMac receptor [2]; tyramine n = 3, octopamine n = 6) was “no apparent effect; also recorded: no obvious effect”.
For `Clc1cccc(Cl)c1N=C1NCCN1` [Clonidine], the “Amplitude of agonist evoked ID relative to octopamine-evoked current” value (OA/TAMac receptor [2]; 30 second perfusion-switch) was “no visible response”.
With `Cc1ccc(N(CC2=NCCN2)c2cccc(O)c2)cc1` [phentolamine] the IC50 (OA/TAMac receptor [1]; [5]) was about 0.98 µM.
With `C/C=C(/C)C(=O)O[C@H]1C(C)=C2[C@H]([C@@H]1OC(=O)CCCCCCC)[C@@](C)(OC(C)=O)C[C@H](OC(=O)CCC)[C@@]1(O)[C@H]2OC(=O)[C@@]1(C)O` [thapsigargin] the “Effect of pre-incubation on tyramine-induced ID waveform” value (OA/TAMac receptor [2]; 1.7 µM in calcium-free ND 96 for three hours, n = 2) was “no apparent effect on the tyramine induced plateau”.
For `NCCc1ccccc1` [β-phenylethylamine], the “Amplitude of agonist evoked ID relative to octopamine-evoked current” value (OA/TAMac receptor [2]; 30 second perfusion-switch) was “comparable or greater amplitude than octopamine”.
For `NCCc1c[nH]cn1` [histamine], the “Amplitude of agonist evoked ID relative to octopamine-evoked current” value (OA/TAMac receptor [2]; 30 second perfusion-switch) was “no response or minimal response” and the “Amplitude of agonist evoked ID relative to octopamine-evoked current” value (OA/TAMac receptor [2]; 30 second perfusion-switch, listed as Histamine) was “minimal response”.
`CN1CCc2cc(Cl)c(O)cc2[C@@H](c2ccccc2)C1` [SCH-23390] gave an IC50 (OA/TAMac receptor [1]; [5]) of about 9.6 µM.
For `NCCc1ccc(O)c(O)c1` [dopamine], the “Response of uninjected oocytes” value (Uninjected oocytes) was “no response”, the “Response of uninjected oocytes” value (Uninjected oocytes; listed as DA) was “do not respond” and the “ID response amplitude (mean ± s.d.)” value (OA/TAMac receptor [2]; 10 µM, 10 second focal application, −60 mV, OA/TAMac and CFTR co-injected, n = 11 oocytes) was 46±31 nA. For the same compound, the EC50 (OA/TAMac receptor [2]; 30 second perfusion-switch, voltage clamped at −60 mV, approximate, estimated graphically from plot, read-out: EC50 of transmitter evoked direct-current (ID), normalized I/Imax) was about 63 µM, the “Concentration at which evoked inward currents became visible/apparent” value (OA/TAMac receptor [2]; 30 second perfusion-switched applications, −60 mV) was “around 1 µM” and the “Spearman rank-order correlation (rS) between rise rate and peak amplitude of evoked ID” value (OA/TAMac receptor [2]; all responses of the concentration series of Figure 3C) was 0.97.
In the case of `CCCN1CCC[C@@H]2Cc3n[nH]cc3C[C@H]21` [(−)-quinpirole], the “Amplitude of agonist evoked ID relative to octopamine-evoked current” value (OA/TAMac receptor [2]; 30 second perfusion-switch) is reported as “smaller currents than octopamine or β-PEA” and the “Amplitude of agonist evoked ID relative to octopamine-evoked current” value (OA/TAMac receptor [2]; 30 second perfusion-switch, listed as quinpirole) is reported as “produces a response in injected oocytes and not in uninjected oocytes”.
